{"source": "PubChem BioAssay AID608", "about": "(Sanford-Burnham Center for Chemical Genomics, 2007)", "note": "The source made the active and inactive calls. The rule behind the calls is not given here.", "data": [{"target": "Peptidyl-prolyl cis-trans isomerase FKBP1A (Homo sapiens) (UniProt P62942)", "sequence (P62942 whole entry, looked up)": "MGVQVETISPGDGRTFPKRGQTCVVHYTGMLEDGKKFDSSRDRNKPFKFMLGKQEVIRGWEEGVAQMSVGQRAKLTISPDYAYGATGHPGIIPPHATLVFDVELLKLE", "assay": "small-molecule binding to FKBP12 – biophysical, NMR detection (AID 608)", "settings": "purified FKBP12", "values": [{"compound": "CCn1c(C)c(C(C)=O)c(N2CCN(C)CC2)nc1=S", "Kd": "> 4 mM (inactive)"}, {"compound": "CC(=O)O[C@@H]1CC2C(C)(CC[C@H](O)C2(C)C)C2CC[C@]3(C)C(=CC(=O)O[C@H]3c3ccoc3)C21C", "note": "(stereo not given in full)", "Kd": "> 4 mM (inactive)"}, {"compound": "Cc1ccc(C(=O)Nc2c[nH]c(=O)[nH]c2=O)cc1", "Kd": "> 4 mM (inactive)"}, {"compound": "Nc1ccc(NS(=O)(=O)c2ccc(N)cc2)cc1", "Kd": "> 4 mM (inactive)"}, {"compound": "COC(=O)c1sccc1S(=O)(=O)N1CCCC1", "Kd": "> 4 mM (inactive)"}, {"compound": "CC1(C)Cc2c(C#N)c(N)n(-c3ccccc3)c(=O)c2CO1", "Kd": "> 4 mM (inactive)"}, {"compound": "COC(=O)C[C@H]1C(C)(C)C(=O)[C@@H]2CC3C4=CC(=O)O[C@@H](c5ccoc5)[C@]4(C)CCC3C1(C)C2=O", "note": "(stereo not given in full)", "Kd": "> 4 mM (inactive)"}, {"compound": "C[C@@H]1CC[C@@]23CCC4(C)[C@@](C=CC5[C@@]6(C)CCC(=O)C(C)(C)C6CC[C@]54C)(OC2=O)C3[C@H]1C", "note": "(stereo not given in full)", "Kd": "> 4 mM (inactive)"}, {"compound": "CN1CCOc2cc(C(=O)O)ccc21", "Kd": "> 4 mM (inactive)"}, {"compound": "O=C(Nc1ccc(O)cc1)N1CCOCC1", "Kd": "> 4 mM (inactive)"}, {"compound": "CSc1nc(C)cc(Oc2ccc(=O)n(C)n2)n1", "Kd": "> 4 mM (inactive)"}, {"compound": "CC1(C)CC2C1CCC1(C)OC2(C)CCC1O", "note": "(stereo not given)", "Kd": "> 4 mM (inactive)"}, {"compound": "O=C(O)C1CSC(c2cc3ccccc3nc2Cl)N1", "note": "(stereo not given)", "Kd": "> 4 mM (inactive)"}, {"compound": "Cc1cc(=O)oc2c1c(C)nn2CN1CCN(C)CC1", "Kd": "> 4 mM (inactive)"}, {"compound": "O=C(NCc1ccc2c(c1)OCO2)c1cccs1", "Kd": "> 4 mM (inactive)"}, {"compound": "NC(=O)Nc1cccc(C(F)(F)F)c1", "Kd": "> 4 mM (inactive)"}, {"compound": "Cn1c(O)c(/C=C2\\C=CC=N2)c(=O)[nH]c1=S", "Kd": "> 4 mM (inactive)"}, {"compound": "Cc1cc2c(N)cccc2nn1", "Kd": "> 4 mM (inactive)"}, {"compound": "O=C(O)C1CCN(c2ccc(C(F)(F)F)cn2)CC1", "Kd": "> 4 mM (inactive)"}, {"compound": "CC(C)=CCc1c2c(c3occ(-c4ccc(O)c(O)c4)c(=O)c3c1O)C=CC(C)(C)O2", "Kd": "> 4 mM (inactive)"}, {"compound": "O=C(O)c1ccc2ccccc2n1", "Kd": "> 4 mM (inactive)"}, {"compound": "CCNC(CC(=O)Nc1ccc(F)cc1)C(=O)O", "note": "(stereo not given)", "Kd": "> 4 mM (inactive)"}, {"compound": "O=P(O)(Cc1ccccc1)c1ccccc1", "Kd": "> 4 mM (inactive)"}, {"compound": "O=S(=O)(Nc1ccc(Br)cc1)N1CCCCC1", "Kd": "0.669 mM"}, {"compound": "CC1(C)C2CC(=O)[C@]3(C)C(CC[C@@]4(C)[C@H](c5ccoc5)OC(=O)[C@H]5O[C@]543)[C@@]2(C)C(=O)C[C@H]1O", "note": "(stereo not given in full)", "Kd": "> 4 mM (inactive)"}, {"compound": "CC(=O)c1ccc(Cc2cnc(N)s2)cc1", "Kd": "> 4 mM (inactive)"}, {"compound": "Nc1ccc(S(=O)(=O)Nc2nccs2)cc1", "Kd": "> 4 mM (inactive)"}, {"compound": "OCc1ccc(CN2CCOCC2)cc1", "Kd": "> 4 mM (inactive)"}, {"compound": "Cc1cc(OCC(=O)N2CC(C)OC(C)C2)cc(C)c1Cl", "note": "(stereo not given)", "Kd": "> 4 mM (inactive)"}, {"compound": "O=C(c1ccccc1)N1CCN(c2ccccc2F)CC1", "Kd": "> 4 mM (inactive)"}, {"compound": "COc1ccc(-c2c(O)c3c(OC)c4c(cc3oc2=O)OC(C)(C)CC4)cc1", "Kd": "> 4 mM (inactive)"}, {"compound": "CCN(CC)S(=O)(=O)c1ccc(F)cc1", "Kd": "> 4 mM (inactive)"}, {"compound": "NCC1CN(Cc2ccccc2)CCO1", "note": "(stereo not given)", "Kd": "> 4 mM (inactive)"}, {"compound": "COC(=O)CSc1ncnc2c(C)csc12", "Kd": "> 4 mM (inactive)"}, {"compound": "CC1(C)CC2(C)N(N)C(=O)CN2C(=S)N1", "note": "(stereo not given)", "Kd": "> 4 mM (inactive)"}, {"compound": "N#Cc1cnc(N2CCCCC2)nc1N", "Kd": "> 4 mM (inactive)"}, {"compound": "OCC1CCN(c2ncccn2)CC1", "Kd": "> 4 mM (inactive)"}, {"compound": "NCc1nnnn1-c1ccccc1", "Kd": "> 4 mM (inactive)"}, {"compound": "O=S(=O)(O)c1nc2ccccc2[nH]1", "Kd": "> 4 mM (inactive)"}, {"compound": "S=c1nc(Cc2ccccc2)[nH][nH]1", "Kd": "> 4 mM (inactive)"}, {"compound": "COc1cc(C/C=C/c2ccccc2)c(OC)cc1O", "Kd": "> 4 mM (inactive)"}, {"compound": "O=C1CC(=O)N(c2ccccc2)c2ccccc21", "Kd": "> 4 mM (inactive)"}, {"compound": "CC(=O)Nc1ccncc1NC(C)=O", "Kd": "> 4 mM (inactive)"}, {"compound": "CNS(=O)(=O)c1cc(OC)ccc1OC", "Kd": "> 4 mM (inactive)"}, {"compound": "CC(C)[C@@H]1CC[C@@H](C)C[C@H]1OC(=O)c1ccccc1", "Kd": "> 4 mM (inactive)"}, {"compound": "O=C(O)c1csc(-c2cccs2)n1", "Kd": "> 4 mM (inactive)"}, {"compound": "CC(C)c1c(O)c(-c2cc3c(c(C(C)C)c2O)CCC2C(C)(C)CCC[C@]32C)cc2c1CCC1C(C)(C)CCC[C@]21C", "note": "(stereo not given in full)", "Kd": "> 4 mM (inactive)"}, {"compound": "CC12OC(=O)CC3C(C)(C)[C@H](O)C=C[C@]3(C)C1CC[C@]1(C)C2=CC(=O)O[C@H]1c1ccoc1", "note": "(stereo not given in full)", "Kd": "> 4 mM (inactive)"}, {"compound": "COC(=O)c1[nH]c2ccccc2c1C(=O)OC", "Kd": "> 4 mM (inactive)"}, {"compound": "CC(=O)Oc1cc2c(C(C)=O)coc2c2ccccc12", "Kd": "> 4 mM (inactive)"}, {"compound": "Cc1nc2c(n1O)CCc1c-2no[n+]1[O-]", "Kd": "> 4 mM (inactive)"}, {"compound": "O=C(NC1=NCCS1)c1ccc2snnc2c1", "Kd": "> 4 mM (inactive)"}, {"compound": "O=C(NCCCO)c1ccncc1", "Kd": "> 4 mM (inactive)"}, {"compound": "Nc1nnc(SCc2ccccc2Cl)s1", "Kd": "> 4 mM (inactive)"}, {"compound": "Nc1ccc(-c2cn3c(n2)SCC3)cc1", "Kd": "> 4 mM (inactive)"}, {"compound": "Nc1cc(-c2ccco2)[nH]n1", "Kd": "> 4 mM (inactive)"}, {"compound": "COc1cccc(=O)c2c(C)n(C)c(C)c12", "Kd": "> 4 mM (inactive)"}, {"compound": "CC(C)=CC(=O)Nc1ccccc1Br", "Kd": "> 4 mM (inactive)"}, {"compound": "O=C(O)/C=C/c1ccc(O)c(O)c1", "Kd": "> 4 mM (inactive)"}, {"compound": "O=c1cnnc(N2CCCCC2)[nH]1", "Kd": "> 4 mM (inactive)"}, {"compound": "Cc1ccc(N2C(=O)CC(Sc3ncn[nH]3)C2=O)cc1", "note": "(stereo not given)", "Kd": "> 4 mM (inactive)"}, {"compound": "COC(=O)C1CSCC1=O", "note": "(stereo not given)", "Kd": "> 4 mM (inactive)"}, {"compound": "O=C1Cc2ccccc2N1c1ccccc1", "Kd": "> 4 mM (inactive)"}, {"compound": "NC(=O)CCS(=O)(=O)CCN1CCOCC1", "Kd": "> 4 mM (inactive)"}, {"compound": "O=c1cc(O)nc(SCc2ccccc2)[nH]1", "Kd": "> 4 mM (inactive)"}, {"compound": "COc1cc([C@@H]2c3cc4c(cc3[C@H](O)[C@H]3COC(=O)[C@@H]23)OCO4)cc(OC)c1OC", "Kd": "> 4 mM (inactive)"}, {"compound": "C=CCn1c(=S)[nH]c2ccc(Br)cc2c1=O", "Kd": "> 4 mM (inactive)"}, {"compound": "CC(=O)CC(=O)N1C(O)CC[N+]1(C)C", "note": "(stereo not given)", "Kd": "> 4 mM (inactive)"}, {"compound": "Cc1ccc(S(=O)(=O)CCc2ccccn2)cc1", "Kd": "> 4 mM (inactive)"}, {"compound": "CN1C(=O)c2ccc(N=C3NC(=O)CS3)cc2C1=O", "Kd": "> 4 mM (inactive)"}, {"compound": "Cc1cc(C(=O)NC(C)c2ccncc2)no1", "note": "(stereo not given)", "Kd": "> 4 mM (inactive)"}, {"compound": "CC1=CCc2c(cc3oc(C)cc(=O)c3c2O)OC1", "Kd": "> 4 mM (inactive)"}, {"compound": "CC(=O)N1CCN(c2ccc(N)cc2)CC1", "Kd": "> 4 mM (inactive)"}, {"compound": "Cc1ccc(NC(=O)c2ccccc2)s1", "Kd": "> 4 mM (inactive)"}, {"compound": "NC(=O)c1cc(N)cc(C(N)=O)c1", "Kd": "> 4 mM (inactive)"}, {"compound": "CC(=O)N(C)Cc1nc2ccccc2n1C", "Kd": "> 4 mM (inactive)"}, {"compound": "O=C1O[C@H](C(O)CO)C(O)=C1O", "note": "(stereo not given in full)", "Kd": "> 4 mM (inactive)"}, {"compound": "O=C(Nn1cnnc1)c1csc2ccccc12", "Kd": "> 4 mM (inactive)"}, {"compound": "OC1CCN(C(=S)NC2CC2)CC1", "Kd": "> 4 mM (inactive)"}, {"compound": "NC(=O)c1ccc(-c2csnn2)cc1", "Kd": "> 4 mM (inactive)"}, {"compound": "COc1ccc2c(c1)[nH]c1c(C)nccc12", "Kd": "> 4 mM (inactive)"}, {"compound": "Cc1ccccc1-n1c(N)cc(=O)[nH]c1=S", "Kd": "> 4 mM (inactive)"}, {"compound": "CCCNC(=O)CSc1nnc(C)s1", "Kd": "> 4 mM (inactive)"}, {"compound": "Cc1[nH]c2ccccc2c1C(=O)CSc1ncn[nH]1", "Kd": "> 4 mM (inactive)"}, {"compound": "Cc1noc(C)c1C(=O)NCc1cccs1", "Kd": "> 4 mM (inactive)"}]}]}
